Data published in patent US8779142B2, “Azabicyclo compound and salt thereof” (Taiho Pharmaceutical Co., Ltd., priority 2009, dated 2014).
Like-named read-outs stand apart in the source and are kept apart here.

Experiments:
[1] = tested on: SK-BR-3 cells; assay: Measurement of cell growth inhibition (crystal violet staining method); assay type: cell-based
[2] = target: human HSP90 alpha protein (HSP90 N-terminal protein, amino acids 2-236) (Homo sapiens (Human), UniProt P07900); assay: Measurement of HSP90-binding activity (AlphaScreen competitive assay, biotin-labeled geldanamycin); conditions: read-out: HSP-binding activity IC50
[3] = Homo sapiens, breast cancer SK-BR-3 cells, 72 hr culture with test substance
[4] = concentration inhibiting binding of biotin-labeled geldanamycin (40 nM) to purified HSP90 to 50% of control

Compound	IC50 [1, 3]	IC50 [2, 4]	IC50 [1]	IC50 [2]	IC50 ([1]; Homo sapiens, SK-BR-3, 72 h)
CCNc1cc(C(N)=O)ccc1-n1nc(C(F)(F)F)c2c(-n3cnc(-c4cccnc4)c3)ccnc21 [Example 180, 3-(Ethylamino)-4-{4-(4-(pyridin-3-yl)-1H-imidazol-1-yl)-3-(trifluoromethyl)-1H-pyrazolo[3,4-b]pyridin-1-yl}benzamide]	140 nM	190 nM	–	–	–
CC(C)c1nn(-c2ccc(C(N)=O)c(NCCCN(C)C)c2)c2nccc(-c3cnc4ccccc4c3)c12 [Example 29, 2-{3-(Dimethylamino)propylamino}-4-{3-isopropyl-4-(quinolin-3-yl)-1H-pyrazolo[3,4-b]pyridin-1-yl}benzamide]	240 nM	320 nM	–	–	–
CC(C)c1nn(-c2ccc(C(N)=O)c(NCC(F)(F)F)c2)c2nccc(-n3cnc(-c4cnn(C)c4)c3)c12 [Example 114, 4-{3-Isopropyl-4-(4-(1-methyl-1H-pyrazol-4-yl)-1H-imidazol-1-yl)-1H-pyrazolo[3,4-b]pyridin-1-yl}-2-(2,2,2-trifluoroethylamino)benzamide]	180 nM	490 nM	–	–	–
CCc1cn(-c2ccc(C(N)=O)c(NCCCCO)c2)c2nccc(-c3cnc4ccccc4c3)c12 [Example 74, 4-{3-Ethyl-4-(quinolin-3-yl)-1H-pyrrolo[2,3-b]pyridin-1-yl}-2-(4-hydroxybutylamino)benzamide]	270 nM	340 nM	–	–	–
CCNc1cc(-n2nc(C(C)C)c3c(-n4cnc(-c5cn[nH]c5)c4)ccnc32)ccc1C(N)=O [Example 144, 4-{4-(4-(1H-Pyrazol-4-yl)-1H-imidazol-1-yl)-3-isopropyl-1H-pyrazolo[3,4-b]pyridin-1-yl}-2-(ethylamino)benzamide]	110 nM	420 nM	–	–	–
CCCNc1cc(C(N)=O)ccc1-n1nc(C(F)(F)F)c2c(-n3cnc(-c4cnn(C)c4)c3)ccnc21 [Example 163, 4-{4-(4-(1-Methyl-1H-pyrazol-4-yl)-1H-imidazol-1-yl)-3-(trifluoromethyl)-1H-pyrazolo[3,4-b]pyridin-1-yl}-3-(propylamino)benzamide]	60 nM	100 nM	–	–	–
Cn1cc(-c2cn(-c3ccnc4c3c(C(F)(F)F)nn4-c3ccc(C(N)=O)cc3-c3ccccc3)cn2)cn1 [Example 172, 6-{4-(4-(1-Methyl-1H-pyrazol-4-yl)-1H-imidazol-1-yl)-3-(trifluoromethyl)-1H-pyrazolo[3,4-b]pyridin-1-yl}biphenyl-3-carboxamide]	870 nM	1070 nM	–	–	–
CC(C)c1nn(-c2ccc(C(N)=O)c(NCCc3ccccn3)c2)c2nccc(-c3cnc4ccccc4c3)c12 [Example 28, 4-{3-Isopropyl-4-(quinolin-3-yl)-1H-pyrazolo[3,4-b]pyridin-1-yl}-2-{2-(pyridin-2-yl)ethylamino}benzamide]	280 nM	400 nM	–	–	–
CCNc1cc(C(N)=O)ccc1-n1nc(C(F)(F)F)c2c(-n3cnc(-c4cnn(C(C)C)c4)c3)ccnc21 [Example 187, 3-(Ethylamino)-4-{4-(4-(1-isopropyl-1H-pyrazol-4-yl)-1H-imidazol-1-yl)-3-(trifluoromethyl)-1H-pyrazolo[3,4-b]pyridin-1-yl}benzamide]	710 nM	620 nM	–	–	–
NC(=O)c1ccc(-n2nc(C(F)(F)F)c3c(-c4cnc5ccccc5c4)ccnc32)cc1N[C@H]1CC[C@H](O)CC1 [Example 1, 2-(Trans-4-hydroxycyclohexylamino)-4-{4-(quinolin-3-yl)-3-(trifluoromethyl)-1H-pyrazolo[3,4-b]pyridin-1-yl}benzamide]	20 nM	120 nM	–	–	–
CCc1cn(-c2ccc(C(N)=O)c(NC3CCN(C)CC3)c2)c2nccc(-c3cnc4ccccc4c3)c12 [Example 71, 4-{3-Ethyl-4-(quinolin-3-yl)-1H-pyrrolo[2,3-b]pyridin-1-yl}-2-(1-methylpiperidin-4-ylamino)benzamide]	100 nM	250 nM	–	–	–
CC(C)c1nn(-c2ccc(C(N)=O)c(NCCN3CCCC3)c2)c2nccc(-c3cnc4ccccc4c3)c12 [Example 22, 4-{3-Isopropyl-4-(quinolin-3-yl)-1H-pyrazolo[3,4-b]pyridin-1-yl}-2-{2-(pyrrolidin-1-yl)ethylamino}benzamide]	160 nM	180 nM	–	–	–
CCn1cc(-c2cn(-c3ccnc4c3c(C(C)C)nn4-c3ccc(C(N)=O)cc3Cl)cn2)cn1 [Example 145, 3-Chloro-4-{4-(4-(1-ethyl-1H-pyrazol-4-yl)-1H-imidazol-1-yl)-3-isopropyl-1H-pyrazolo[3,4-b]pyridin-1-yl}benzamide]	1500 nM	630 nM	–	–	–
CC(C)c1nn(-c2ccc(C(N)=O)c(NC3CCC(O)CC3)c2)c2nccc(-n3cnc(-n4ccnc4)c3)c12 (stereo not shown) [Example 92, 4-{4-(1′H-1,4′-Biimidazol-1′-yl)-3-isopropyl-1H-pyrazolo[3,4-b]pyridin-1-yl}-2-(4-hydroxycyclohexylamino)benzamide]	70 nM	130 nM	–	–	–
CC(C)Nc1cc(C(N)=O)ccc1-n1nc(C(F)(F)F)c2c(-n3cnc(-c4cnn(C)c4)c3)ccnc21 [Example 164, 3-(Isopropylamino)-4-{4-(4-(1-methyl-1H-pyrazol-4-yl)-1H-imidazol-1-yl)-3-(trifluoromethyl)-1H-pyrazolo[3,4-b]pyridin-1-yl}benzamide]	70 nM	110 nM	–	–	–
Cc1cn(-c2ccc(C(N)=O)c(N[C@@H]3CCCC[C@H]3N)c2)c2nccc(-c3cnc4ccccc4c3)c12 (relative stereo) [Example 64, 2-(Trans-2-aminocyclohexylamino)-4-{3-methyl-4-(quinolin-3-yl)-1H-pyrrolo[2,3-b]pyridin-1-yl}benzamide]	590 nM	420 nM	–	–	–
CC(C)c1nn(-c2ccc(C(N)=O)c(NC3CCN(C)CC3)c2)c2nccc(-c3cnc4ccccc4c3)c12 [Example 24, 4-{3-Isopropyl-4-(quinolin-3-yl)-1H-pyrazolo[3,4-b]pyridin-1-yl}-2-(1-methylpiperidin-4-ylamino)benzamide]	30 nM	230 nM	–	–	–
Cc1cn(-c2ccc(C(N)=O)c(NC3CCOCC3)c2)c2nccc(-c3cnc4ccccc4c3)c12 [Example 53, 2-(Tetrahydro-2H-pyran-4-ylamino)-4-{3-methyl-4-(quinolin-3-yl)-1H-pyrrolo[2,3-b]pyridin-1-yl}benzamide]	200 nM	350 nM	–	–	–
4-{4-(4-(1-(Hydroxyethyl)-1H-pyrazol-4-yl)-1H-imidazol-1-yl)-3-isopropyl-1H-pyrazolo[3,4-b]pyridin-1-yl}-2-(isopropyl)benzamide [Example 148]	–	–	240 nM	400 nM	–
CCNc1c(C(N)=O)ccc(-n2nc(C(C)C)c3c(-n4cnc(-c5cnn(C)c5)c4)ccnc32)c1C [Example 132, 2-(Ethylamino)-4-{3-isopropyl-4-(4-(1-methyl-1H-pyrazol-4-yl)-1H-imidazol-1-yl)-1H-pyrazolo[3,4-b]pyridin-1-yl}-3-methylbenzamide]	100 nM	120 nM	–	–	–
CC(C)Nc1cc(-n2nc(C(F)(F)F)c3c(-n4cnc(-c5cnn(C)c5)c4)ccnc32)ccc1C(N)=O [Example 160, 2-(Isopropylamino)-4-{4-(4-(1-methyl-1H-pyrazol-4-yl)-1H-imidazol-1-yl)-3-(trifluoromethyl)-1H-pyrazolo[3,4-b]pyridin-1-yl}benzamide]	20 nM	160 nM	–	–	–
CC(C)c1nn(-c2ccc(C(N)=O)c(NCCN(C)C)c2)c2nccc(-c3cnc4ccccc4c3)c12 [Example 27, 2-{2-(Dimethylamino)ethylamino}-4-{3-isopropyl-4-(quinolin-3-yl)-1H-pyrazolo[3,4-b]pyridin-1-yl}benzamide]	130 nM	240 nM	–	–	–
Cc1cc(C(N)=O)ccc1-n1nc(C(C)C)c2c(-n3cnc(-c4ccncc4)c3)ccnc21 [Example 149, 4-{3-Isopropyl-4-(4-(pyridin-4-yl)-1H-imidazol-1-yl)-1H-pyrazolo[3,4-b]pyridin-1-yl}-3-methylbenzamide]	690 nM	390 nM	–	–	–
CC(C)c1nn(-c2ccc(C(N)=O)c(NC3CCC(O)CC3)c2)c2nccc(-n3cnc(-c4cnn(CCOCc5ccccc5)c4)c3)c12 (stereo not shown) [Example 94, 4-{4-(4-(1-(Benzyloxyethyl)-1H-pyrazol-4-yl)-1H-imidazol-1-yl)-3-isopropyl-1H-pyrazolo[3,4-b]pyridin-1-yl}-2-(4-hydroxycyclohexylamino)benzamide]	200 nM	470 nM	–	–	–
CC(C)c1nn(-c2ccc(C(N)=O)c(N)c2)c2nccc(-n3cnc(-c4cnn(C)c4)c3)c12 [Example 106, 2-Amino-4-{3-isopropyl-4-(4-(1-methyl-1H-pyrazol-4-yl)-1H-imidazol-1-yl)-1H-pyrazolo[3,4-b]pyridin-1-yl}benzamide]	650 nM	340 nM	–	–	–
CC(C)c1nn(-c2ccc(C(N)=O)c(N[C@H]3CC[C@H](O)CC3)c2)c2cncc(-c3cnc4ccccc4c3)c12 [Example 5, 2-(Trans-4-hydroxycyclohexylamino)-4-{3-isopropyl-4-(quinolin-3-yl)-1H-pyrazolo[3,4-c]pyridin-1-yl}benzamide]	–	–	–	160 nM	110 nM
CCNCCNc1cc(-n2cc(CC)c3c(-c4cnc5ccccc5c4)ccnc32)ccc1C(N)=O [Example 75, 4-{3-Ethyl-4-(quinolin-3-yl)-1H-pyrrolo[2,3-b]pyridin-1-yl}-2-{2-(ethylamino)ethylamino}benzamide]	240 nM	310 nM	–	–	–
CCc1c(-n2nc(C(C)C)c3c(-n4cnc(-c5cnn(C)c5)c4)ccnc32)ccc(C(N)=O)c1N [Example 134, 2-Amino-3-ethyl-4-{3-isopropyl-4-(4-(1-methyl-1H-pyrazol-4-yl)-1H-imidazol-1-yl)-1H-pyrazolo[3,4-b]pyridin-1-yl}benzamide]	110 nM	200 nM	–	–	–
CCc1cn(-c2ccc(C(N)=O)c(N[C@H]3CC[C@H](O)CC3)c2)c2nccc(-c3cnc4ccccc4c3)c12 [Example 41, 4-{3-Ethyl-4-(quinolin-3-yl)-1H-pyrrolo[2,3-b]pyridin-1-yl}-2-(trans-4-hydroxycyclohexylamino)benzamide]	30 nM	120 nM	–	–	–
